{"source": "patent US20010021394A1", "about": "“Induction of a cellular stress response with heavy metal salts” (priority 1996, published 2001)", "key": {"warm renal ischemia": {"test_system": "warm renal ischemia", "assay": "Warm ischemic injury of the rat kidney (renal vascular resistance)", "type": "in vivo, Male Sprague-Dawley rats", "conditions": "following 60 minutes of warm ischemic injury, recorded as mm mercury/ml fluid/gram of tissue, control approximately 60, uninjured 43-44", "procedure": "Male Sprague-Dawley rats were stress conditioned and subjected to warm ischemic injury using methods similar to those previously described in Perdrizet et al., supra. The non-treated control animals underwent 60 minutes of occlusion of the renal artery at 35-37° C. as an ischemic insult. Following the ischemic injury, flow was reestablished in the kidney and vascular resistance of the kidney was measured. To measure renal vascular resistance, a syringe system was attached to the renal artery, to give a constant flow rate of approximately 0.5 cc/minute. Since there was a constant flow rate, it was possible to measure the pressure generated in the syringe. The higher the pressure, the greater the resistance. Renal vascular resistance was recorded as mm mercury/ml fluid/gram of tissue."}, "spinal cord ischemia": {"test_system": "spinal cord ischemia", "assay": "Acute spinal cord ischemia in the rabbit (aortic occlusion, neurologic function after reperfusion)", "type": "in vivo, New Zealand white rabbits", "conditions": "0.15 mg per kilogram subcutaneous, sixteen hours prior to 20 minutes aortic occlusion at 37° C., evaluated 24 hours after reperfusion, four animals", "source_text": "New Zealand white rabbits were stress conditioned and subjected to spinal cord ischemia using methods similar to those previously described in Perdrizet et al., “Stress conditioning: A novel approach to organ preservation”, Current Surgery, 46(1): 23-26 (January-February 1989), the contents of which are incorporated herein by reference in their entirety. The rabbits were subjected to spinal cord ischemia by occlusion of the infrarenal-abdominal aorta as an ischemic insult to the spinal cord, for 20 minutes at 37° C. The occlusion was then removed and blood flow re-established to the infra-renal aorta. Neurological function of the lower extremities was evaluated 24 hours after reperfusion. Four animals were pretreated with a subcutaneous injection in the rump region of stannous chloride (SnCl2) in a saline diluent at a dose of 0.15 mg per kilogram (0.00066 millimoles per kilogram), sixteen hours prior to aortic occlusion."}}}
{"compound": "[Cl][Sn][Cl]", "note": "[SnCl2, stannous chloride]", "values": [{"measurement": "Renal vascular resistance", "setting": "warm renal ischemia", "value": 45, "unit": "resistance units"}, {"measurement": "Neurological function of the lower extremities", "setting": "spinal cord ischemia", "value": "all four animals pretreated with SnCl2 had normal neurologic function"}]}
